The nature of data set [1]: log P by HPLC on reversed-phase column (EEC Directive 79/831 Annex V.A8). The data set is classed as physicochemical. The settings on record: 0.1% aqueous formic acid and acetonitrile, linear gradient 10% to 90% acetonitrile. On the procedure:
In table 1, the log P values were determined in accordance with EEC Directive 79/831 Annex V.A8 by HPLC (High Performance Liquid Chromatography) on a reversed-phase column (C 18), using the method described below: Temperature: 40° C.; Mobile phases: 0.1% aqueous formic acid and acetonitrile; linear gradient from 10% acetonitrile to 90% acetonitrile. Calibration was carried out using unbranched alkan-2-ones (comprising 3 to 16 carbon atoms) with known log P values (determination of the log P values by the retention times using linear interpolation between two successive alkanones). lambda-max-values were determined using UV-spectra from 200 nm to 400 nm and the peak values of the chromatographic signals.

A further data set has as its system Alternaria solani. Nature of the data set: In vivo preventive test on Alternaria solani (tomato). The following applies: preventive spray, 500 ppm of active ingredient, evaluated 7 days after inoculation. The method, then:
In Vivo Preventive Test on Alternaria Solani (Tomato)
(§1) Solvent: 49 parts by weight of N,N-dimethylformamide
(§2) Emulsifier: 1 part by weight of alkylarylpolyglycolether
(§3) To produce a suitable preparation of active compound, 1 part by weight of active compound is mixed with the stated amounts of solvent and emulsifier, and the concentrate is diluted with water to the desired concentration.
To test for preventive activity, young plants are sprayed with the preparation of active compound at the stated rate of application. One day after this treatment, the plants are inoculated with an aqueous spore suspension of Alternaria solani. The plants remain for one day in an incubation cabinet at approximately 22° C. and a relative atmospheric humidity of 100%. Then the plants are placed in an incubation cabinet at approximately 20° C. and a relative atmospheric humidity of 96%.
The test is evaluated 7 days after the inoculation. 0% means an efficacy which corresponds to that of the untreated control while an efficacy of 100% means that no disease is observed.

In a further data set the test system is Pyrenophora teres. Nature of the data set: In vivo preventive test on Pyrenophora teres (barley). The following applies: preventive spray, 500 ppm of active ingredient, evaluated 7-9 days after inoculation. On the procedure:
In Vivo Preventive Test on Pyrenophora teres (Barley)
Solvent: 49 parts by weight of N,N-dimethylacetamid
Emulsifier: 1 part by weight of alkylaryl polyglycol ether
as §3
To test for preventive activity, young plants are sprayed with the preparation of active compound at the stated rate of application. One day after this treatment, the plants are inoculated with an aqueous spore suspension of Pyrenophora teres. The plants remain for 48 hours in an incubation cabinet at 22° C. and a relative atmospheric humidity of 100%. Then the plants are placed in a greenhouse at a temperature of approximately 20° C. and a relative atmospheric humidity of approximately 80%.
The test is evaluated 7-9 days after the inoculation. 0% means an efficacy which corresponds to that of the untreated control while an efficacy of 100% means that no disease is observed.

The subject of a further data set is Sphaerotheca fuliginea. Nature of the data set: In vivo preventive test on Sphaerotheca fuliginea (cucumber). The settings on record: preventive spray, 500 ppm of active ingredient, evaluated 7 days after inoculation. On the procedure:
In Vivo Preventive Test on Sphaerotheca fuliginea (Cucumber)
as §1, §2, §3
To test for preventive activity, young plants are sprayed with the preparation of active compound at the stated rate of application. After the spray coating has dried on, the plants are inoculated with an aqueous spore suspension of Sphaerotheca fuliginea. The plants are then placed in a greenhouse at approximately 23° C. and a relative atmospheric humidity of approximately 70%.
The test is evaluated 7 days after the inoculation. 0% means an efficacy which corresponds to that of the untreated control, while an efficacy of 100% means that no disease is observed.

Where [2] appears, read: HPLC, reversed-phase C 18, 40° C.
Where [3] appears, read: HPLC on reversed-phase column (C 18), 40° C.

Structures are written as SMILES.

Regarding `CC(NC(=O)c1c(C(F)F)nn(C)c1Cl)c1ccccc1` (racemic) [Example 1], the logP (in general, a log measure of how a compound divides between an organic and an aqueous phase) in data set [1] (setting [2]) was found to be 2.49. Besides, the Efficacy with Alternaria solani and in the data set on Pyrenophora teres was 95% each time.

For the compound `CC(NC(=O)c1c(C(F)F)nn(C)c1F)c1ccccc1` (racemic) [Example 2], in data set [1] (setting [2]), the logP worked out at 2.33. Moreover, the results for the Efficacy in the data set on Alternaria solani and with Pyrenophora teres were 93% and 94%, respectively.

In turn, `Cn1nc(C(F)F)c(C(=O)NC(c2ccccc2Cl)C(F)(F)F)c1F` (racemic) [Example 23] had a logP in data set [1] (setting [2]) of 3.21. The same compound registered an Efficacy in the data set with Alternaria solani of 89%.

With `CC(c1ccccc1Cl)N(C)C(=O)c1c(C(F)F)nn(C)c1Cl` (racemic) [Example 27], the logP in data set [1] (setting [2]) was determined as 2.84. Further, the Efficacy in the data set on Alternaria solani amounted to 80%; in the data set with Pyrenophora teres it was 100%.

In turn, `CC(c1ccc(Oc2ccccc2)cc1)N(C)C(=O)c1c(C(F)F)nn(C)c1Cl` (racemic) [Example 153] showed a logP in data set [1] (setting [3]) of 3.76. Further, the values for the Efficacy in the data set on Alternaria solani and in the data set with Pyrenophora teres were 90% and 80%, respectively.

In the case of `CC(NC(=O)c1c(C(F)F)nn(C)c1Cl)c1ccc(-c2ccccc2)cc1` (racemic) [Example 167], in data set [1] (setting [3]), the logP is given as 3.62. The Efficacy was found to be 95% with Alternaria solani and 90% in the data set with Pyrenophora teres.

The compound `C=CCN(Cc1ccccc1CC)C(=O)c1c(C(F)F)nn(C)c1F` [Example 16] came in with a logP in data set [1] (setting [2]) of 3.36. In addition, the Efficacy with Alternaria solani is reported as 80%; in the data set with Pyrenophora teres it was 100%.

Take `Cn1nc(C(F)F)c(C(=O)NC(C)(C)c2ccccc2Cl)c1Cl` [Example 22]: in data set [1] (setting [2]), the logP was determined as 3.15. Besides, the Efficacy with Sphaerotheca fuliginea is on record as 80%.

The compound `Cn1nc(C(F)F)c(C(=O)NC(c2ccc(Cl)cc2Cl)C(F)(F)F)c1Cl` (centres unmarked) [Example 32] had a logP in data set [1] (setting [2]) of 3.89. For the same compound, the Efficacy in the data set on Sphaerotheca fuliginea came out at 95%.

Compound `Cn1nc(C(F)F)c(C(=O)NCc2ccc(Cl)cc2Cl)c1F` [Example 37] displayed a logP in data set [1] (setting [2]) of 4.19. The Efficacy in the data set with Alternaria solani came out at 94%.

In data set [1] (setting [2]), `Cn1nc(C(F)F)c(C(=O)NC2(c3ccc(Cl)cc3Cl)CC2)c1Cl` [Example 41] registered a logP of 3.89. The Efficacy in the data set on Alternaria solani was found to be 80%.

Regarding `CON(C(=O)c1c(C(F)F)nn(C)c1Cl)C(C)c1ccc(Cl)cc1Cl` (centres unmarked) [Example 46], the logP in data set [1] (setting [2]) came out at 3.81. Also, the Efficacy in the data set with Alternaria solani and with Pyrenophora teres was 100% each time.

Regarding `Cn1nc(C(F)F)c(C(=O)NC2(c3cc(Cl)ccc3Cl)CC2)c1F` [Example 51], the logP in data set [1] (setting [2]) turned out to be 4.19. The Efficacy worked out at 94% with Alternaria solani and 80% in the data set on Pyrenophora teres.

`Cn1nc(C(F)F)c(C(=O)NCc2cc(Cl)ccc2Cl)c1F` [Example 54] showed a logP in data set [1] (setting [2]) of 4.19. This compound also had an Efficacy with Alternaria solani of 89%.

Compound `Cn1nc(C(F)F)c(C(=O)NCc2ccccc2C(F)(F)F)c1F` [Example 81] displayed a logP in data set [1] (setting [2]) of 2.76. Besides, the Efficacy in the data set with Alternaria solani turned out to be 90%.

The compound `Cn1nc(C(F)F)c(C(=O)NCc2ccccc2C(F)(F)F)c1Cl` [Example 83] had a lipophilicity (logP) in data set [1] (setting [2]) of 2.96. This compound displayed an Efficacy with Alternaria solani of 90%.

As to `CC(NC(=S)c1c(C(F)F)nn(C)c1Cl)c1ccccc1C(F)(F)F` (centres unmarked) [Example 85], the logP in data set [1] (setting [2]) is listed as 3.55. The Efficacy is 95% with Alternaria solani and 100% with Pyrenophora teres.

In data set [1] (setting [2]), `Cn1nc(C(F)F)c(C(=O)N(CC#N)Cc2c(Cl)cccc2C(F)(F)F)c1F` [Example 88] returned a logP of 2.68. In the data set with Alternaria solani, this compound had an Efficacy of 80%.

The compound `CN(Cc1c(Cl)cccc1C(F)(F)F)C(=O)c1c(C(F)F)nn(C)c1F` [Example 89] showed a logP in data set [1] (setting [2]) of 2.93. Besides, the Efficacy in the data set on Alternaria solani is 95%; in the data set with Pyrenophora teres it was 100%.

Consider `CN(Cc1ccccc1Br)C(=O)c1c(C(F)F)nn(C)c1F` [Example 105], for which the logP in data set [1] (setting [3]) worked out at 2.71. In addition, the Efficacy with Alternaria solani is recorded as 95%; with Pyrenophora teres, 94%.

Take `Cn1nc(C(F)F)c(C(=O)NCc2ccccc2SC(F)(F)F)c1F` [Example 107]: the logP in data set [1] (setting [3]) was 3.11. Besides, the figures for the Efficacy in the data set with Alternaria solani and with Pyrenophora teres were 80% and 100%, respectively.

In data set [1] (setting [3]), `Cn1nc(C(F)F)c(C(=O)NCc2ccc3c(c2)CCCC3)c1F` [Example 110] displayed a logP of 3.25. The results for the Efficacy in the data set with Alternaria solani and in the data set on Pyrenophora teres were 94% and 80%, respectively.

`Cn1nc(C(F)F)c(C(=O)NCc2cc(Cl)cc(Cl)c2)c1Cl` [Example 113] showed a log partition coefficient (logP) in data set [1] (setting [3]) of 3.23. Moreover, the Efficacy came to 90% with Alternaria solani and 80% in the data set on Pyrenophora teres.

In turn, `Cn1nc(C(F)F)c(C(=O)NCc2cc(Cl)cc(Cl)c2)c1F` [Example 115] returned a logP in data set [1] (setting [3]) of 3.09. Further, the Efficacy in the data set on Alternaria solani was 94%; in the data set on Pyrenophora teres, 90%.

`Cn1nc(C(F)F)c(C(=O)NC2(c3ccc(C(F)(F)F)cc3)CCCC2)c1F` [Example 121] displayed a logP in data set [1] (setting [3]) of 3.72. Further, the figures for the Efficacy in the data set on Alternaria solani and in the data set on Pyrenophora teres were 70% and 94%, respectively.

In the case of `Cn1nc(C(F)F)c(C(=O)NCc2ccc(Cl)cc2)c1F` [Example 127], the logP in data set [1] (setting [3]) turned out to be 2.55. This compound also had an Efficacy in the data set on Alternaria solani of 90%.

Compound `Cn1nc(C(F)F)c(C(=O)NC2CCc3ccccc32)c1Cl` (centres unmarked) [Example 137] registered a logP in data set [1] (setting [3]) of 2.73. In addition, the Efficacy with Alternaria solani is given as 89%.

Compound `Cn1nc(C(F)F)c(C(=O)NC2CCc3ccccc32)c1F` (centres unmarked) [Example 138] gave a logP in data set [1] (setting [3]) of 2.57. The compound also yielded an Efficacy with Alternaria solani of 94%.

On to `Cn1nc(C(F)F)c(C(=O)NCc2ccccc2Oc2ccccc2)c1F` [Example 144], for which the logP in data set [1] (setting [3]) turned out to be 3.25. The same compound displayed an Efficacy in the data set with Alternaria solani of 89%.

In the case of `Cn1nc(C(F)F)c(C(=O)NCc2cccc(Oc3ccccc3)c2)c1F` [Example 145], in data set [1] (setting [3]), the logP was 3.23. This compound showed an Efficacy in the data set with Alternaria solani of 90%.

`Cn1nc(C(F)F)c(C(=O)N(Cc2cccc(Oc3ccccc3)c2)C2COC2)c1Cl` [Example 147]: the logP in data set [1] (setting [3]) was found to be 3.19. The compound further registered an Efficacy with Alternaria solani of 70%.

`Cn1nc(C(F)F)c(C(=O)N(Cc2cccc(Oc3ccccc3)c2)C2COC2)c1F` [Example 148]: the logP in data set [1] (setting [3]) stood at 3.06. Further, the Efficacy in the data set on Alternaria solani is 80%; in the data set with Pyrenophora teres it was 95%.

For the compound `CN(Cc1cccc(Oc2ccccc2)c1)C(=O)c1c(C(F)F)nn(C)c1F` [Example 150], the logP in data set [1] (setting [3]) is recorded as 3.31. The Efficacy is given as 70% in the data set on Alternaria solani and 100% in the data set with Pyrenophora teres.

Turning to `Cn1nc(C(F)F)c(C(=O)NCc2ccc(Oc3ccccc3)cc2)c1F` [Example 152], in data set [1] (setting [3]), the logP is on record as 3.23. Besides, the values for the Efficacy with Alternaria solani and with Pyrenophora teres were 89% and 95%, respectively.

`CN(Cc1ccc(Oc2ccccc2)cc1)C(=O)c1c(C(F)F)nn(C)c1F` [Example 156] registered a logP in data set [1] (setting [3]) of 3.33. Further, the Efficacy came out at 89% with Alternaria solani and 90% in the data set with Pyrenophora teres.

`CN(Cc1ccc(Oc2ccc(Cl)cc2)cc1)C(=O)c1c(C(F)F)nn(C)c1F` [Example 158] yielded a logP in data set [1] (setting [3]) of 3.81. The Efficacy was determined as 95% in the data set on Alternaria solani and 100% with Pyrenophora teres.

In the case of `Cn1nc(C(F)F)c(C(=O)NCc2ccc(OCc3ccccc3)cc2)c1F` [Example 161], the logP in data set [1] (setting [3]) is 3.23. Moreover, the Efficacy in the data set with Alternaria solani amounted to 94%; in the data set on Pyrenophora teres it was 90%.

In data set [1] (setting [3]), `Cn1nc(C(F)F)c(C(=O)NCc2cccc(-c3ccccc3)c2)c1F` [Example 166] had a logP of 3.19. Moreover, the Efficacy with Alternaria solani is recorded as 78%; in the data set on Pyrenophora teres, 80%.

`Cn1nc(C(F)F)c(C(=O)NCc2ccc(-c3ccccc3)cc2)c1F` [Example 170] showed a logP in data set [1] (setting [3]) of 3.21. Also, the results for the Efficacy with Alternaria solani and in the data set on Pyrenophora teres were 94% and 95%, respectively.

Take `Cn1nc(C(F)F)c(C(=O)NCc2ncc(C(F)(F)F)cc2Cl)c1F` [Example 176]: the logP in data set [1] (setting [3]) stood at 2.76. In the data set with Alternaria solani, this compound returned an Efficacy of 70%.

Source of the values: patent US9084424B2, “N-benzyl heterocyclic carboxamides” (BAYER INTELLECTUAL PROPERTY GMBH, priority 2010, dated 2015).
